Values joined by “and” are separate entries in the source; they are usually repeats but may differ in a detail not shown here. Equal entries are not always repeated.
Assay: Pharmacokinetics in whole blood, CD-1 mice
Details: CD-1 mice, individual animals; for concentration at 0.083 hr / concentration at 0.333 h / concentration at 0.5 h / concentration at 1 h / concentration at 4 h: male, CD-1, mouse, in vivo, po, Compound 1 Whole Blood Conc.

Q: Which “Compound 1 Whole Blood Conc.” value (100 mg/kg RE-024-02 by PO, 2 hr, LLOQ 1.6 nM) does the source give for `COC(=O)CCNC(=O)[C@@H]1OP(=O)(N[C@@H](C)C(=O)OC)OCC1(C)C` (some centres unmarked) [Compound 1] here?
A: BQL

Q: What about the “Compound 1 Whole Blood Conc.” value (100 mg/kg RE-024-02 by PO, 4 hr, LLOQ 0.6 ng/mL) of the same compound?
A: BQL

Q: And the “Compound 1 Whole Blood Conc.” value (100 mg/kg RE-024-02 by PO, 4 hr, LLOQ 1.6 nM)?
A: BQL

Q: What about the “Compound 1 Whole Blood Conc.” value (100 mg/kg RE-024-02 by PO, 8 hr, LLOQ 0.6 ng/mL) of the same compound?
A: BQL

Q: What about the “Compound 1 Whole Blood Conc.” value (100 mg/kg RE-024-02 by PO, 8 hr, LLOQ 1.6 nM) of the same compound?
A: BQL

Q: What about the “Compound 1 Whole Blood Conc.” value (300 mg/kg RE-024-02 by PO, 0.033 hr, LLOQ 0.6 ng/mL, 300 mg/kg) of the same compound?
A: 8.7 ng/mL and 70.8 ng/mL and 52.7 ng/mL and 7.2 ng/mL

Q: And the “Compound 1 Whole Blood Conc.” value (300 mg/kg RE-024-02 by PO, 0.033 hr, LLOQ 1.6 nM, 300 mg/kg)?
A: 22.9 nM and 186.2 nM and 138.7 nM and 18.9 nM

Q: And the “Compound 1 Whole Blood Conc.” value (300 mg/kg RE-024-02 by PO, 0.083 hr, LLOQ 0.6 ng/mL, 300 mg/kg)?
A: 1.6 ng/mL and BQL and 16.9 ng/mL

Q: What about the “Compound 1 Whole Blood Conc.” value (300 mg/kg RE-024-02 by PO, 0.083 hr, LLOQ 1.6 nM, 300 mg/kg) of the same compound?
A: 4.2 nM and BQL and 44.3 nM

Q: What about the “Compound 1 Whole Blood Conc.” value (300 mg/kg RE-024-02 by PO, 0.167 hr, LLOQ 0.6 ng/mL, 300 mg/kg) of the same compound?
A: 21.9 ng/mL and 24.1 ng/mL and 53.3 ng/mL and 17.7 ng/mL

Q: And the “Compound 1 Whole Blood Conc.” value (300 mg/kg RE-024-02 by PO, 0.167 hr, LLOQ 1.6 nM, 300 mg/kg)?
A: 57.6 nM and 63.3 nM and 140.1 nM and 46.5 nM

Q: And the “Compound 1 Whole Blood Conc.” value (300 mg/kg RE-024-02 by PO, 0.333 hr, LLOQ 0.6 ng/mL, 300 mg/kg)?
A: 2.4 ng/mL and 4.3 ng/mL and 3.8 ng/mL and 1.5 ng/mL

Q: And the “Compound 1 Whole Blood Conc.” value (300 mg/kg RE-024-02 by PO, 0.333 hr, LLOQ 1.6 nM, 300 mg/kg)?
A: 6.2 nM and 11.3 nM and 10 nM and 3.9 nM

Q: What about the “Compound 1 Whole Blood Conc.” value (300 mg/kg RE-024-02 by PO, 0.5 hr, LLOQ 0.6 ng/mL, 300 mg/kg) of the same compound?
A: 4.4 ng/mL and 4.5 ng/mL and 2.8 ng/mL

Q: And the “Compound 1 Whole Blood Conc.” value (300 mg/kg RE-024-02 by PO, 0.5 hr, LLOQ 1.6 nM, 300 mg/kg)?
A: 11.5 nM and 11.9 nM and 7.4 nM

Q: And the “Compound 1 Whole Blood Conc.” value (300 mg/kg RE-024-02 by PO, 1 hr, LLOQ 0.6 ng/mL, 300 mg/kg)?
A: BQL

Q: What about the “Compound 1 Whole Blood Conc.” value (300 mg/kg RE-024-02 by PO, 1 hr, LLOQ 1.6 nM, 300 mg/kg) of the same compound?
A: BQL

Q: What about the “Compound 1 Whole Blood Conc.” value (300 mg/kg RE-024-02 by PO, 2 hr, LLOQ 0.6 ng/mL) of the same compound?
A: BQL

Q: And the “Compound 1 Whole Blood Conc.” value (300 mg/kg RE-024-02 by PO, 2 hr, LLOQ 1.6 nM)?
A: BQL

Q: And the “Compound 1 Whole Blood Conc.” value (300 mg/kg RE-024-02 by PO, 4 hr, LLOQ 0.6 ng/mL)?
A: BQL

Q: And the “Compound 1 Whole Blood Conc.” value (300 mg/kg RE-024-02 by PO, 4 hr, LLOQ 1.6 nM)?
A: BQL

Q: What about the “Compound 1 Whole Blood Conc.” value (300 mg/kg RE-024-02 by PO, 8 hr, LLOQ 0.6 ng/mL) of the same compound?
A: BQL

Q: And the “Compound 1 Whole Blood Conc.” value (300 mg/kg RE-024-02 by PO, 8 hr, LLOQ 1.6 nM)?
A: BQL

Q: And the “Compound 1 Whole Blood Conc.” value (700 mg/kg RE-024-02 by PO, 0.033 hr, LLOQ 0.6 ng/mL, 700 mg/kg)?
A: 22.6 ng/mL and 66.6 ng/mL and 198 ng/mL and 119.4 ng/mL

Q: What about the “Compound 1 Whole Blood Conc.” value (700 mg/kg RE-024-02 by PO, 0.033 hr, LLOQ 1.6 nM, 700 mg/kg) of the same compound?
A: 59.3 nM and 175.1 nM and 520.6 nM and 313.9 nM

Q: What about the “Compound 1 Whole Blood Conc.” value (700 mg/kg RE-024-02 by PO, 0.083 hr, LLOQ 0.6 ng/mL, 700 mg/kg) of the same compound?
A: 165 ng/mL and 2.2 ng/mL and 624 ng/mL and 75 ng/mL

Q: What about the “Compound 1 Whole Blood Conc.” value (700 mg/kg RE-024-02 by PO, 0.083 hr, LLOQ 1.6 nM, 700 mg/kg) of the same compound?
A: 433.8 nM and 5.9 nM and 1640.7 nM and 197.2 nM

Q: What about the “Compound 1 Whole Blood Conc.” value (700 mg/kg RE-024-02 by PO, 0.167 hr, LLOQ 0.6 ng/mL, 700 mg/kg) of the same compound?
A: 636 ng/mL and 235.8 ng/mL and 165 ng/mL and 720 ng/mL

Q: What about the “Compound 1 Whole Blood Conc.” value (700 mg/kg RE-024-02 by PO, 0.167 hr, LLOQ 1.6 nM, 700 mg/kg) of the same compound?
A: 1672.2 nM and 620 nM and 433.8 nM and 1893.1 nM

Q: And the “Compound 1 Whole Blood Conc.” value (700 mg/kg RE-024-02 by PO, 0.333 hr, LLOQ 0.6 ng/mL, 700 mg/kg)?
A: 63.6 ng/mL

Q: And the “Compound 1 Whole Blood Conc.” value (700 mg/kg RE-024-02 by PO, 0.333 hr, LLOQ 1.6 nM, 700 mg/kg)?
A: 167.2 nM

Q: And the “Compound 1 Whole Blood Conc.” value (700 mg/kg RE-024-02 by PO, 0.5 hr, LLOQ 0.6 ng/mL, 700 mg/kg)?
A: 12 ng/mL and 41.6 ng/mL and 9.4 ng/mL and 22.9 ng/mL

Q: And the “Compound 1 Whole Blood Conc.” value (700 mg/kg RE-024-02 by PO, 0.5 hr, LLOQ 1.6 nM, 700 mg/kg)?
A: 31.6 nM and 109.3 nM and 24.8 nM and 60.1 nM

Q: And the “Compound 1 Whole Blood Conc.” value (700 mg/kg RE-024-02 by PO, 1 hr, LLOQ 0.6 ng/mL, 700 mg/kg)?
A: 48.8 ng/mL and 16 ng/mL and 6.1 ng/mL and 8.8 ng/mL

Q: And the “Compound 1 Whole Blood Conc.” value (700 mg/kg RE-024-02 by PO, 1 hr, LLOQ 1.6 nM, 700 mg/kg)?
A: 128.4 nM and 42.1 nM and 15.9 nM and 23.2 nM

Q: What about the “Compound 1 Whole Blood Conc.” value (700 mg/kg RE-024-02 by PO, 2 hr, LLOQ 0.6 ng/mL, 700 mg/kg) of the same compound?
A: 5.5 ng/mL and 4 ng/mL and 5.6 ng/mL and 10.2 ng/mL

Q: What about the “Compound 1 Whole Blood Conc.” value (700 mg/kg RE-024-02 by PO, 2 hr, LLOQ 1.6 nM, 700 mg/kg) of the same compound?
A: 14.6 nM and 10.4 nM and 14.8 nM and 26.8 nM

Q: And the “Compound 1 Whole Blood Conc.” value (700 mg/kg RE-024-02 by PO, 4 hr, LLOQ 0.6 ng/mL, 700 mg/kg)?
A: BQL

Q: And the “Compound 1 Whole Blood Conc.” value (700 mg/kg RE-024-02 by PO, 4 hr, LLOQ 1.6 nM, 700 mg/kg)?
A: BQL

Q: And the “Compound 1 Whole Blood Conc.” value (700 mg/kg RE-024-02 by PO, 8 hr, LLOQ 0.6 ng/mL)?
A: BQL

Q: What about the “Compound 1 Whole Blood Conc.” value (700 mg/kg RE-024-02 by PO, 8 hr, LLOQ 1.6 nM) of the same compound?
A: BQL

Q: What about the concentration at 0.083 hr (100 mg/kg, 100 mg/kg RE-024-02 by PO, 0.083 hr, LLOQ 0.6 ng/mL) of the same compound?
A: 1.4 ng/mL

Q: And the concentration at 0.083 hr (100 mg/kg, 100 mg/kg RE-024-02 by PO, 0.083 hr, LLOQ 1.6 nM)?
A: 3.8 nM

Q: And the concentration at 0.333 h (100 mg/kg, 100 mg/kg RE-024-02 by PO, 0.333 hr, LLOQ 0.6 ng/mL)?
A: 0.8 ng/mL

Q: What about the concentration at 0.333 h (100 mg/kg, 100 mg/kg RE-024-02 by PO, 0.333 hr, LLOQ 1.6 nM) of the same compound?
A: 2 nM

Q: What about the concentration at 0.5 h (300 mg/kg, 300 mg/kg RE-024-02 by PO, 0.5 hr, LLOQ 0.6 ng/mL) of the same compound?
A: 5 ng/mL

Q: What about the concentration at 0.5 h (300 mg/kg, 300 mg/kg RE-024-02 by PO, 0.5 hr, LLOQ 1.6 nM) of the same compound?
A: 13.1 nM

Q: What about the concentration at 1 h (300 mg/kg, 300 mg/kg RE-024-02 by PO, 1 hr, LLOQ 0.6 ng/mL) of the same compound?
A: 0.8 ng/mL

Q: And the concentration at 1 h (300 mg/kg, 300 mg/kg RE-024-02 by PO, 1 hr, LLOQ 1.6 nM)?
A: 2.1 nM

Q: What about the concentration at 0.333 h (700 mg/kg, 700 mg/kg RE-024-02 by PO, 0.333 hr, LLOQ 0.6 ng/mL) of the same compound?
A: 109 ng/mL

Q: And the concentration at 0.333 h (700 mg/kg, 700 mg/kg RE-024-02 by PO, 0.333 hr, LLOQ 1.6 nM)?
A: 286 nM

Q: And the concentration at 4 h (700 mg/kg, 700 mg/kg RE-024-02 by PO, 4 hr, LLOQ 0.6 ng/mL)?
A: 0.8 ng/mL

Q: And the concentration at 4 h (700 mg/kg, 700 mg/kg RE-024-02 by PO, 4 hr, LLOQ 1.6 nM)?
A: 2.1 nM

— paper PMC5844530, “Fosmetpantotenate (RE-024), a phosphopantothenate replacement therapy for pantothenate kinase-associated neurodegeneration: Mechanism of action and efficacy in nonclinical models” (PLoS ONE, 2018)
